Reference: article PMC4774911, “Biochemical Screening of Five Protein Kinases from Plasmodium falciparum against 14,000 Cell-Active Compounds” (PLoS ONE, 2016)

Columns and labels:
[1] = molecular target: T1, Plasmodium falciparum calcium-dependent protein kinase 1 (CDPK1) (Plasmodium falciparum, UniProt P62344); assay: CDPK1 Kinase-Glo ATP-consumption screen and dose-response; format: biochemical; conditions: hits below 1 uM; read-out: CDPK1 IC50
T1 construct: 6-Histidine (N); made in house
Procedure: Biochemical assays were performed in white 384-well plates (Nunc). Liquid transfers were done manually with 8-channel pipets. Compounds were initially tested in a single-point screen (final concentration 1 μM). […] The catalytic activity of each kinase was considered proportional to ATP consumed, as determined from measurements of residual [ATP] with the luciferase-based reagent Kinase-Glo (Promega) following incubation. Luminescence (proportional to residual [ATP]) was measured on the plate readers FLx800 (BioTek Instruments, Winooski, VT, USA) and MicroBeta^2 (PerkinElmer, Waltham, MA, USA). Incubation times were chosen to ensure near-complete ATP depletion in the absence of inhibition, thus maximizing the difference in signal between inhibited and uninhibited wells.
40 μM Syntide-2 was used as a substrate; BKI-1 [14] was used as a control inhibitor, while reaction mixtures lacking Syntide-2 were included as an additional negative control. Incubation time was 90 minutes. Reactions were terminated by adding excess EGTA (5 mM), which sequesters Ca^2+ and halts calcium-dependent kinase activity.

[2] = system: HepG2 cells; conditions: HepG2; downloaded from ChEMBL; ref F.J. Gamo et al., Nature 2010; cited from earlier work
[3] = system: P. falciparum 3D7 cells; conditions: 3D7; downloaded from ChEMBL; ref F.J. Gamo et al., Nature 2010; cited from earlier work
[4] = system: DD2; parameters: method as in F.J. Gamo et al., Nature 2010; conditions: downloaded from ChEMBL, ref F.J. Gamo et al., Nature 2010; cited from earlier work
[5] = system: 3D7 PFLDH; parameters: method as in F.J. Gamo et al., Nature 2010; concentration or dose not given beside the values; conditions: downloaded from ChEMBL, ref F.J. Gamo et al., Nature 2010; cited from earlier work

T1 sequence (P62344 whole entry): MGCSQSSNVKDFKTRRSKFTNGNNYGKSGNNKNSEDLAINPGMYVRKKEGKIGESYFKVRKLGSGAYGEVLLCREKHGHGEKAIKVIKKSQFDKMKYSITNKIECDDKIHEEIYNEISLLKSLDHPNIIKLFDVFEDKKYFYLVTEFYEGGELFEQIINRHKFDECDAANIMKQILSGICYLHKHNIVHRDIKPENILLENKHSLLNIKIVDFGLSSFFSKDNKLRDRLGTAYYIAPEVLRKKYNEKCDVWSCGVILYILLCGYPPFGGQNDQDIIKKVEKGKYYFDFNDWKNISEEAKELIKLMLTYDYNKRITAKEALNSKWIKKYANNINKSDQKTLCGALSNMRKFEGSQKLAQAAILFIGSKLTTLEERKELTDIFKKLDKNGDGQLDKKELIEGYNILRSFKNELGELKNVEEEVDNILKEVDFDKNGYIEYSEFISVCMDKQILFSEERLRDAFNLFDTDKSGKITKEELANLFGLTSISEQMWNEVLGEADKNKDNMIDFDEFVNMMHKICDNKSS

CN1CCN(CCCNCc2cccc(Nc3nccc(Nc4ccc(Oc5ccccc5)cc4)n3)c2)CC1 [TCMDC-138616]
IC50 [1]: 261 nM | PCT_INHIB_HEPG2 [2]: 97% | PCT_IHB_3D7 [3]: 100% | pXC50_3D7 [3]: 6.117 | PCT_INHB_DD2 [4]: 80% | PCT_INHIB_3D7_PFLDH [5]: 0%

Cl.c1ccc(Oc2ccc(Nc3ccnc(Nc4ccc(OCCN5CCCCC5)cc4)n3)cc2)cc1 [TCMDC-138583]
IC50 [1]: 701 nM | PCT_INHIB_HEPG2 [2]: 23% | PCT_IHB_3D7 [3]: 97% | pXC50_3D7 [3]: 6.219 | PCT_INHB_DD2 [4]: 66% | PCT_INHIB_3D7_PFLDH [5]: 0%

CCCN1CCN(CCNC(=O)c2cccc(Nc3nccc(Nc4ccc(Oc5ccccc5)cc4)n3)c2)CC1 [TCMDC-138606]
IC50 [1]: 336 nM | PCT_INHIB_HEPG2 [2]: 56% | PCT_IHB_3D7 [3]: 99% | pXC50_3D7 [3]: 6.622 | PCT_INHB_DD2 [4]: 96% | PCT_INHIB_3D7_PFLDH [5]: 0%

O=C(NCCN1CCCC1)c1cccc(Nc2nccc(Nc3ccc(Oc4ccccc4)cc3)n2)c1 [TCMDC-138602]
IC50 [1]: 213 nM | PCT_INHIB_HEPG2 [2]: 33% | PCT_IHB_3D7 [3]: 100% | pXC50_3D7 [3]: 6.184 | PCT_INHB_DD2 [4]: 18% | PCT_INHIB_3D7_PFLDH [5]: 0%

CCn1c(-c2nonc2N)nc2c(-c3ccc(CO)o3)ncc(OCCCN)c21.O=C(O)C(F)(F)F [TCMDC-133807]
IC50 [1]: 51 nM | PCT_INHIB_HEPG2 [2]: 0% | PCT_IHB_3D7 [3]: 93% | pXC50_3D7 [3]: 5.866 | PCT_INHB_DD2 [4]: 97% | PCT_INHIB_3D7_PFLDH [5]: 0%

CN1CCN(Cc2cccc(Nc3nccc(Nc4ccc(Oc5ccccc5)cc4)n3)c2)CC1 [TCMDC-138614]
IC50 [1]: 801 nM | PCT_INHIB_HEPG2 [2]: 30% | PCT_IHB_3D7 [3]: 97% | pXC50_3D7 [3]: 6.529 | PCT_INHB_DD2 [4]: 80% | PCT_INHIB_3D7_PFLDH [5]: 2%

O=C(O)C(F)(F)F.O=c1[nH]ccc2nc(N[C@@H]3CCNC3)nc(Nc3ccc4c(c3)S(=O)(=O)CC4)c12 [TCMDC-135044]
IC50 [1]: 235 nM | PCT_INHIB_HEPG2 [2]: 0% | PCT_IHB_3D7 [3]: 100% | pXC50_3D7 [3]: 6.4233 | PCT_INHB_DD2 [4]: 99% | PCT_INHIB_3D7_PFLDH [5]: 0%

Cc1ccc(Nc2nccc(N(C)c3ccc4c(c3)nc(NC(=O)Cc3ccc(Cl)c(Cl)c3)n4C)n2)cc1S(N)(=O)=O.O=C(O)C(F)(F)F [TCMDC-141965]
IC50 [1]: 345 nM | PCT_INHIB_HEPG2 [2]: 71% | PCT_IHB_3D7 [3]: 94% | pXC50_3D7 [3]: 5.954 | PCT_INHB_DD2 [4]: 60% | PCT_INHIB_3D7_PFLDH [5]: 0%

CCOC(=O)c1cccc(NC(=O)Nc2cccc(-c3ncc(OCCCN)c4c3nc(-c3nonc3N)n4CC)c2)c1.O=C(O)C(F)(F)F [TCMDC-136205]
IC50 [1]: 294 nM | PCT_INHIB_HEPG2 [2]: 16% | PCT_IHB_3D7 [3]: 100% | pXC50_3D7 [3]: 6.0485 | PCT_INHB_DD2 [4]: 98% | PCT_INHIB_3D7_PFLDH [5]: 2%

CN1CCN(CCCNCc2ccc(Nc3nccc(Nc4ccc(Oc5ccccc5)cc4)n3)cc2)CC1 [TCMDC-138621]
IC50 [1]: 139 nM | PCT_INHIB_HEPG2 [2]: 17% | PCT_IHB_3D7 [3]: 100% | pXC50_3D7 [3]: 6.197 | PCT_INHB_DD2 [4]: 9% | PCT_INHIB_3D7_PFLDH [5]: 0%

Cl.c1ccc(Oc2ccc(Nc3ccnc(Nc4ccc5cn[nH]c5c4)n3)cc2)cc1 [TCMDC-138574]
IC50 [1]: 765 nM | PCT_INHIB_HEPG2 [2]: 6% | PCT_IHB_3D7 [3]: 94% | pXC50_3D7 [3]: 6.135 | PCT_INHB_DD2 [4]: 33% | PCT_INHIB_3D7_PFLDH [5]: 0%

CC(=O)Nc1cccc(Nc2nccc(Nc3ccc(Oc4ccccc4)cc3)n2)c1.Cl [TCMDC-138590]
IC50 [1]: 425 nM | PCT_INHIB_HEPG2 [2]: 15% | PCT_IHB_3D7 [3]: 100% | pXC50_3D7 [3]: 6.128 | PCT_INHB_DD2 [4]: 99% | PCT_INHIB_3D7_PFLDH [5]: 0%

O=C(NCCN1CCCCC1)c1ccc(Nc2nccc(Nc3ccc(Oc4ccccc4)cc3)n2)cc1 [TCMDC-138608]
IC50 [1]: 103 nM | PCT_INHIB_HEPG2 [2]: 58% | PCT_IHB_3D7 [3]: 100% | pXC50_3D7 [3]: 6.257 | PCT_INHB_DD2 [4]: 91% | PCT_INHIB_3D7_PFLDH [5]: 0%
